Results reported in US10370360B2, “Small-molecule inhibitors targeting discoidin domain receptor 1 and uses thereof” (priority 2014, dated 2019).
Where two headings read alike, the source gives them in different places.

Legend:
KPC mice (PDA) = assay: survival study, KPC genetically engineered mouse model of PDA; type: in vivo
orthotopic AsPC-1 tumors = assay: survival study, orthotopic AsPC-1 xenograft in NOD-SCID mice; type: in vivo, mouse
[1] = rats; Gao et al., 2013; cited from earlier work
human PDA cell lines [2] = details: concentration-dependent, 30 hour
human PDA cell lines [3] = assay: liquid colony forming assay; type: cell-based; details: concentration-dependent, 1.5-2 weeks
c-Kit = c-Kit (Homo sapiens (Human), UniProt P10721); assay: FRET-based Z'-Lyte kinase assay, c-kit; type: biochemical; details: 300 μM ATP
DDR2 = DDR2 (Homo sapiens (Human), UniProt Q16832); assay: LanthaScreen Eu kinase activity assay, DDR2; type: biochemical; details: 100 nM ATP
Bcr-Abl [4] = assay: FRET-based Z'-Lyte kinase assay, Abl; type: biochemical; details: 10 μM ATP; cells printed in μM
DDR1 = DDR1 (Homo sapiens (Human), UniProt Q08345); assay: LanthaScreen Eu kinase activity assay, DDR1; type: biochemical; details: 100 nM ATP
Bcr-Abl [5] = biological target: Bcr-Abl (Homo sapiens, UniProt P00519); assay: FRET-based Z'-Lyte kinase assay, Abl; type: biochemical; details: 10 μM ATP; cells printed in μM
AsPC-1 cells = assay: MTS viability assay, AsPC-1; type: cell-based; details: Homo sapiens
PANC-1 cells = assay: MTS viability assay, PANC-1; type: cell-based; details: Homo sapiens

Bcr-Abl, sequence (P00519 whole entry): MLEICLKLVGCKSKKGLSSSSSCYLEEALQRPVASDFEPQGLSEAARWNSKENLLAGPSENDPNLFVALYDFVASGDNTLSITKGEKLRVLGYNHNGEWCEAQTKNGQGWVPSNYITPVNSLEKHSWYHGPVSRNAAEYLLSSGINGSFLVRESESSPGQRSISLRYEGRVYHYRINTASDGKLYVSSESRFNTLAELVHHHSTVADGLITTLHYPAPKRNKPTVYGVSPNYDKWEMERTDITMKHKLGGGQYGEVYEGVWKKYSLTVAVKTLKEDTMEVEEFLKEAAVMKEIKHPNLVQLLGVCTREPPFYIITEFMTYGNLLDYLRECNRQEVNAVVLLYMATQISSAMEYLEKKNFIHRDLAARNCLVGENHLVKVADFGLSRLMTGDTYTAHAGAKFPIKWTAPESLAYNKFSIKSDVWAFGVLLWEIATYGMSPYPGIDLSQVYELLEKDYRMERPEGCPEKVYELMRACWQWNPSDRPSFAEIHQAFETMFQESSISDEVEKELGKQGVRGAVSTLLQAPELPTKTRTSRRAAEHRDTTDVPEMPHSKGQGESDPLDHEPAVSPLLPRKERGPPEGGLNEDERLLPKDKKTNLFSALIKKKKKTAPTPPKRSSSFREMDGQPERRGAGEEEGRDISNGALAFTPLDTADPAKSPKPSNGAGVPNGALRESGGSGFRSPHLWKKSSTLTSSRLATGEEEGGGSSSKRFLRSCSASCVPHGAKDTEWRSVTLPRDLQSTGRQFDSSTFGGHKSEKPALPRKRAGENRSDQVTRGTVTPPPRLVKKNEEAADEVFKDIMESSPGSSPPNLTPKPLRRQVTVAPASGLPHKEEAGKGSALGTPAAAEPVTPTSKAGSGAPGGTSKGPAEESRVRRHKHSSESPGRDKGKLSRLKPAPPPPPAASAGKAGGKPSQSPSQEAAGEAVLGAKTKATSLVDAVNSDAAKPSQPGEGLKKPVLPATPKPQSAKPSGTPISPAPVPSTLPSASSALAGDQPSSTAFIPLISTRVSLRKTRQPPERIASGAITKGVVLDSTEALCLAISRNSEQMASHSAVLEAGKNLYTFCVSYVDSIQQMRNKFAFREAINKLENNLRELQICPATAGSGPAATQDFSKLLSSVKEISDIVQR
DDR1, sequence (Q08345 19-913): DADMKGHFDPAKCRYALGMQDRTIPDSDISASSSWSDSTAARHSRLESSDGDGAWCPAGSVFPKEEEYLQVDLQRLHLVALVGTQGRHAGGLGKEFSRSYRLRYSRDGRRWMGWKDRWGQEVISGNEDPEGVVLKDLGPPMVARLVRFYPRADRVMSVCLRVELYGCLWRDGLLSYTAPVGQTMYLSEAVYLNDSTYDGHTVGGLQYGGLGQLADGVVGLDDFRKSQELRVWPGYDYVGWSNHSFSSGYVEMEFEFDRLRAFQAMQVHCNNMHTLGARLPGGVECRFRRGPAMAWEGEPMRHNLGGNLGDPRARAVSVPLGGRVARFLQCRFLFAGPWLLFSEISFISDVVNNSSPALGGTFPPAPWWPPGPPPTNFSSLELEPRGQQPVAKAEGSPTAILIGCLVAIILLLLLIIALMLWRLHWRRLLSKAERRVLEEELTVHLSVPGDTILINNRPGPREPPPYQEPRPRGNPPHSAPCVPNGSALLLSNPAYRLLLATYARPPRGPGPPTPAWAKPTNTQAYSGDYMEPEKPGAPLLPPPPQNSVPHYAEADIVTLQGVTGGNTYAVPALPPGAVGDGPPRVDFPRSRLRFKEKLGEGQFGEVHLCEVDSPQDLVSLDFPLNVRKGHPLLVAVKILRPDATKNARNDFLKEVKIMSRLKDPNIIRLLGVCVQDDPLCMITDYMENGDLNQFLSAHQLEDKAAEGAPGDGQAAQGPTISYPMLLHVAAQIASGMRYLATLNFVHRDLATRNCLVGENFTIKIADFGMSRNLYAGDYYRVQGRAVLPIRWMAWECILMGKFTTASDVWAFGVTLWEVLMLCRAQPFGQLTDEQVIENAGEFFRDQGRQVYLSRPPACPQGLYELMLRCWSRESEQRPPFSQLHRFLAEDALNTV
DDR2, sequence (Q16832 22-855): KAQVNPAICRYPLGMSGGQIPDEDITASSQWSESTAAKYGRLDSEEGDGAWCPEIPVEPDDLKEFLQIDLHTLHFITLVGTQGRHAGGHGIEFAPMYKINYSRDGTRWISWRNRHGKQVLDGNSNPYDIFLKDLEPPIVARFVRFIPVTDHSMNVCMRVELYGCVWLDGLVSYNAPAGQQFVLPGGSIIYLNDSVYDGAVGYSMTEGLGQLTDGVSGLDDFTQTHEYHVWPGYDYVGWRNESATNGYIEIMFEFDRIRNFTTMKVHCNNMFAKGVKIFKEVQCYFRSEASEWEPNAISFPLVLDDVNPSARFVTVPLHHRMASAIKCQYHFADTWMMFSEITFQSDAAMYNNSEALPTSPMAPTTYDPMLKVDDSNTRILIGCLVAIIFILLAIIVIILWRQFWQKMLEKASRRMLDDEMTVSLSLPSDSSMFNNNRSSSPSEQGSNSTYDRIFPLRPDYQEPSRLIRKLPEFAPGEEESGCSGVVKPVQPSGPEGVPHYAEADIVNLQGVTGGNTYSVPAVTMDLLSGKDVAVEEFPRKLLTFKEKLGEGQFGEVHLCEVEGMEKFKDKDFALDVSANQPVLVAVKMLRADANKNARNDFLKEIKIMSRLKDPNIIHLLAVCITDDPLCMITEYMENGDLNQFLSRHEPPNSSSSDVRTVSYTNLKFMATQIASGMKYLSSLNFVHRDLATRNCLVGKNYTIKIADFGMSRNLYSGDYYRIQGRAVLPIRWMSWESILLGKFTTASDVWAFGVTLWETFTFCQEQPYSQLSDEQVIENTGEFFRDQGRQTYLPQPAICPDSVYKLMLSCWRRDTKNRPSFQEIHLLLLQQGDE
c-Kit, sequence (P10721 26-976): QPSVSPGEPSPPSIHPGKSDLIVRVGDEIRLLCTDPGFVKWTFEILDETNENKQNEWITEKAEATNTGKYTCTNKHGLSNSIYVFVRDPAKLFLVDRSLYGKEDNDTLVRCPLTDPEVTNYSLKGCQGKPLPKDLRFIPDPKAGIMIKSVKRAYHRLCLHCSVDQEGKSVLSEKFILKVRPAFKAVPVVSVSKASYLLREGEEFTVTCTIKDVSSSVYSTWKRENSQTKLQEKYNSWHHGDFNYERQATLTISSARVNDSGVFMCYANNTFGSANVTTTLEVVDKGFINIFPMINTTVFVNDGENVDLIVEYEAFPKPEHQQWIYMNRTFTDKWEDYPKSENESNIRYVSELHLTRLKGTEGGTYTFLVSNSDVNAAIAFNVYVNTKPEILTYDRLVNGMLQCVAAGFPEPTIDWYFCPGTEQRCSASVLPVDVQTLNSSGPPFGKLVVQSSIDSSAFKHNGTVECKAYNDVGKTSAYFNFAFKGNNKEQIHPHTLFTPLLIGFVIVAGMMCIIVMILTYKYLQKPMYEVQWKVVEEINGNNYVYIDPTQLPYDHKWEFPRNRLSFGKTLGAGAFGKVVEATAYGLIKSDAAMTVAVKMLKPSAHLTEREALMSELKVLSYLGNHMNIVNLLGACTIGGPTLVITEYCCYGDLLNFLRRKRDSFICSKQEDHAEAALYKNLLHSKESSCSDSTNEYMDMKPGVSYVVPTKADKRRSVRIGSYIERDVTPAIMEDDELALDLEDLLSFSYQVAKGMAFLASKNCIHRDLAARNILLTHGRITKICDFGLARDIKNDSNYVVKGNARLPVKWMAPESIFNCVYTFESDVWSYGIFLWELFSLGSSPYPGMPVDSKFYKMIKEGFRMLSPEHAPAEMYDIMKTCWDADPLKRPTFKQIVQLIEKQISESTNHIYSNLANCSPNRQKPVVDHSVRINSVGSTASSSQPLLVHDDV
Bcr-Abl (Homo sapiens, UniProt P00519), sequence (P00519 whole entry): as the sequence (P00519 whole entry) above

Compound	IC50 (c-Kit)	IC50 (DDR2; cells without unit)	IC50 (Bcr-Abl [4])	IC50 (DDR1)	IC50 (DDR2; cells printed in μM)	also measured
CCc1ccc(C(=O)Nc2cc(CN3CCN(C)CC3)cc(C(F)(F)F)c2)cc1C#Cc1cnc2ccnn2c1 [Example 7rh, 3-(2-(Pyrazolo[1,5-a]pyrimidin-6-yl)-ethynyl) 7rh benzamide]	–	–	–	–	–	median of survival (KPC mice (PDA); KPC mice enrolled at 4 months of age, 7rh 25 mg/kg 3×/week oral): 159 days; primary tumor growth compared to vehicle (KPC mice (PDA); KPC mice, tumor weight vs survival days): reduced; primary tumor growth compared to vehicle (orthotopic AsPC-1 tumors; orthotopic AsPC-1, tumor weight vs survival days): reduced; median overall survival (orthotopic AsPC-1 tumors; orthotopic AsPC-1, therapy from day 27 post tumor cell injection, 7rh 25 mg/kg 3×/week oral): 57 days; in vivo half-life [1]: ~12 h; cell migration (human PDA cell lines [2]): reduced; colony formation (human PDA cell lines [3]): reduced
CC(C)c1cc(CN2CCN(C)CC2)cc(NC(=O)c2ccc3c(c2)CN(c2cncnc2)CC3C)c1 (stereo not shown) [Example 16, N-(3-isopropyl-5-((4-methylpiperazin-1-yl)methyl)phenyl)-4-methyl-2-(pyrimidin-5-yl)-1,2,3,4-tetrahydroisoquinoline-7-carboxamide]	> 10 µM	0.647 µM	7.2 µM	35.7 nM	–	–
CCN1CCN(Cc2cc(NC(=O)c3ccc4c(c3)CN(c3cncnc3)CC4C)cc(C(F)(F)F)c2)CC1 (stereo not shown) [Example 17, N-(3-((4-ethylpiperazin-1-yl)methyl)-5-(trifluoromethyl)phenyl)-4-methyl-2-(pyrimidin-5-yl)-1,2,3,4-tetrahydroisoquinoline-7-carboxamide]	> 10 µM	0.527 µM	> 10 µM	39.1 nM	–	–
CC1CN(c2cncnc2)Cc2cc(C(=O)Nc3cc(CN4CCOCC4)cc(C(F)(F)F)c3)ccc21 (stereo not shown) [Example 18, 4-methyl-N-(3-(morpholinomethyl)-5-(trifluoromethyl)phenyl)-2-(pyrimidin-5-yl)-1,2,3,4-tetrahydroisoquinoline-7-carboxamide]	> 10 µM	–	> 10 µM	193 nM	4.5 µM	–
CC1CN(c2cncnc2)Cc2cc(C(=O)Nc3cc(CN4CCCCC4)cc(C(F)(F)F)c3)ccc21 (stereo not shown) [Example 19, 4-methyl-N-(3-(piperidin-1-ylmethyl)-5-(trifluoromethyl)phenyl)-2-(pyrimidin-5-yl)-1,2,3,4-tetrahydroisoquinoline-7-carboxamide]	> 10 µM	–	> 10 µM	166 nM	2.2 µM	–
CC1CN(c2cncnc2)Cc2cc(C(=O)Nc3cc(CN4CCCC4)cc(C(F)(F)F)c3)ccc21 (stereo not shown) [Example 20, 4-methyl-2-(pyrimidin-5-yl)-N-(3-(pyrrolidin-1-ylmethyl)-5-(trifluoromethyl)phenyl)-1,2,3,4-tetrahydroisoquinoline-7-carboxamide]	> 10 µM	–	> 10 µM	222 nM	2.3 µM	–
CC1CN(c2cncnc2)Cc2cc(C(=O)Nc3cc(CN(C)C)cc(C(F)(F)F)c3)ccc21 (stereo not shown) [Example 21, N-(3-((dimethylamino)methyl)-5-(trifluoromethyl)phenyl)-4-methyl-2-(pyrimidin-5-yl)-1,2,3,4-tetrahydroisoquinoline-7-carboxamide]	> 10 µM	–	> 10 µM	254 nM	6.7 µM	–
CC1CN(c2cncnc2)Cc2cc(C(=O)Nc3cc(CN4CCN(C)CC4)cc(C4CCCCC4)c3)ccc21 (stereo not shown) [Example 22, N-(3-cyclohexyl-5-((4-methylpiperazin-1-yl)methyl)phenyl)-4-methyl-2-(pyrimidin-5-yl)-1,2,3,4-tetrahydroisoquinoline-7-carboxamide]	> 10 µM	0.457 µM	> 10 µM	71.6 nM	–	–
Cc1cn(-c2cc(NC(=O)c3ccc4c(c3)CN(c3cncnc3)CC4C)cc(C(F)(F)F)c2)cn1 (stereo not shown) [Example 26, 4-methyl-N-(3-(4-methyl-1H-imidazol-1-yl)-5-(trifluoromethyl)phenyl)-2-(pyrimidin-5-yl)-1,2,3,4-tetrahydroisoquinoline-7-carboxamide]	> 10 µM	–	–	–	–	IC50 (Bcr-Abl [5]): 7.2 µM
CC1Cc2ccc(C(=O)Nc3cc(CN4CCN(C)CC4)cc(C(F)(F)F)c3)cc2CN1c1cncnc1 (stereo not shown) [Example 30, 3-methyl-N-(3-((4-methylpiperazin-1-yl)methyl)-5-(trifluoromethyl)phenyl)-2-(pyrimidin-5-yl)-1,2,3,4-tetrahydroisoquinoline-7-carboxamide]	> 10 µM	–	> 10 µM	544 nM	7.6 µM	–
CC1CN(c2cncnc2)Cc2cc(C(=O)Nc3cc(CN4CCN(C5CCCCC5)CC4)cc(C(F)(F)F)c3)ccc21 (stereo not shown) [Example 33, N-(3-((4-cyclohexylpiperazin-1-yl)methyl)-5-(trifluoromethyl)phenyl)-4-methyl-2-(pyrimidin-5-yl)-1,2,3,4-tetrahydroisoquinoline-7-carboxamide]	> 10 µM	0.945 µM	> 10 µM	79.9 nM	–	–
CC1CN(c2cncnc2)Cc2cc(C(=O)Nc3cc(CN4CCSCC4)cc(C(F)(F)F)c3)ccc21 (stereo not shown) [Example 35, 4-methyl-2-(pyrimidin-5-yl)-N-(3-(thiomorpholinomethyl)-5-(trifluoromethyl)phenyl)-1,2,3,4-tetrahydroisoquinoline-7-carboxamide]	> 10 µM	–	> 10 µM	209 nM	3.7 µM	–
Nc1ccn([C@@H]2O[C@H](CO)[C@@H](O)C2(F)F)c(=O)n1 [Gemcitabine, gemcitabine]	–	–	–	–	–	IC50 (AsPC-1 cells; ASPC1, AsPC-1, collagen coating, single agent, read-out: Gemcitabine (nM) Avg IC50s Collagen): 2000 nM; IC50 (AsPC-1 cells; ASPC1, AsPC-1, plastic coating, single agent, read-out: Gemcitabine (nM) Avg IC50s Plastic): > 2000 nM; IC50 (AsPC-1 cells; ASPC1, read-out: 500 nM 7rh + Gem Avg IC50s Plastic, AsPC-1, plastic, fixed 500 nM 7rh with gemcitabine titration): ≤ 2 nM; IC50 (PANC-1 cells; PANC-1, PANC-1, collagen coating, single agent, read-out: Gemcitabine (nM) Avg IC50s Collagen): 2000 nM; IC50 (PANC-1 cells; PANC-1, PANC-1, plastic coating, single agent, read-out: Gemcitabine (nM) Avg IC50s Plastic): > 2000 nM; IC50 (PANC-1 cells; PANC-1, read-out: 500 nM 7rh + Gem Avg IC50s Plastic, PANC-1, plastic, fixed 500 nM 7rh with gemcitabine titration): ≤ 2 nM
